Data published in patent EP2805715A1, “Inhibitors of RNR2 subunit of ribonucleotide reductase to impair reverse transcription of hiv related lentiviruses in macrophages and use thereof for the treatment of hiv infected patients” (INSTITUT PASTEUR, priority 2013, dated 2014).
Where a name gives a salt, the structure may show the parent alone. Read-outs that look alike come from different tables or passages of the source.

Legend:
HIV-1/VSV-G = format: cell-based
MDM = MDM viability; format: cell-based, human

Row | SMILES | HIV-1 replication, fold changes of luciferase activity with respect to mock treated cells (HIV-1/VSV-G) | MDM viability (MDM) | MDM viability (MDM; at the concentrations used in the assays (data not shown))
1 | CC(=O)N(O)CCCCCNC(=O)CCC(=O)N(O)CCCCCNC(=O)CCC(=O)N(O)CCCCCN [DFO, Deferoxamine mesylate] | Dose dependent inhibition | not affected | 
2 | NC(=O)NO [HU, Hydroxyurea] | Dose dependent inhibition |  | not affected
